# Tested on: Human sebocytes
# Experiment: Test of sebum secretion-inhibiting effect using human sebocytes (linoleic acid-induced, Bodipy lipid staining)
# Type: cell-based
# Description: Human sebocytes were cultured for 24 hours in an environment of 37° C. and 5% CO2 with Sebocyte Complete Culture Media (Celprogen), and then treated with 100 μM linoleic acid and 0.1, 0.5, 1, and 2 ppm Melasolv and cultured for another 48 hours.
# Thereafter, the cells were fixed with formaldehyde, and lipids were stained with 2 μM Bodipy. Fluorescence intensity was measured at a specific wavelength (Excitation/Emission: 485/528 nm) using a Fluorescent Plate Reader.
Compound,"sebum production, percentage compared to the untreated control group (100%) (100 μM linoleic acid alone (inducer), 48 hours, Bodipy fluorescence)","amount of sebum production (concentration dependence) (0.1, 0.5, 1, and 2 ppm Melasolv together with 100 μM linoleic acid, 48 hours (FIG. 1))","sebum production seen in fluorescence photograph (FIG. 2) (2 ppm Melasolv, naked-eye observation of Bodipy fluorescence photograph)","inhibition at 2 ppm (Homo sapiens, 2 ppm Melasolv with 100 μM linoleic acid, 48 hours, based on the amount of sebum production induced by linoleic acid, Bodipy fluorescence (FIG. 1))"
"CCCCC/C=C\C/C=C\CCCCCCCC(=O)O [linoleic acid, reference compound]",142%,,,
"COc1cc(/C=C/C(=O)Oc2cc(C)ccc2C(C)C)cc(OC)c1OC [Melasolv, (5-methyl-2-propan-2-ylphenyl) (E)-3-(3,4,5-trimethoxyphenyl)prop-2-enoate]",,decreased in proportion to the concentration,most inhibited,~60.3%

# From US20260144770A1, “COMPOSITION FOR INHIBITING SEBUM SECRETION CONTAINING A THYMOL ESTER-BASED COMPOUND” (AMOREPACIFIC CORPORATION, priority 2024, published 2026)
